Laboratory results reported in ChEMBL document CHEMBL1201862, “PubChem BioAssay data set” (2004).
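Cells were grown in 96-well plates and exposed to each compound for 48 hours at five concentrations; endpoints were interpolated linearly between bracketing concentrations, or set to the highest concentration if not reached. At the GI50, growth is halved.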 Activity calls are given as the source filed them. Cut-off read from the data, not from the text of the source: active = GI50 up to about 1.1 µM and inactive = higher.

Key:
Assay in all cases: growth of human tumour cells (NCI), 48 h
786-0 = system: 786-0
A498 = system: A498
A549 = system: A549
ACHN = system: ACHN
BT-549 = system: BT-549
CAKI-1 = system: CAKI-1
CCRF-CEM = system: CCRF-CEM
COLO 205 = system: COLO 205
DU-145 = system: DU-145
EKVX = system: EKVX
HCC 2998 = system: HCC 2998
HCT-116 = system: HCT-116
HCT-15 = system: HCT-15
HL-60 = system: HL-60
HOP-62 = system: HOP-62
HT-29 = system: HT-29
Hs-578T = system: Hs-578T
IGROV-1 = system: IGROV-1
K562 = system: K562
KM12 = system: KM12
LOX IMVI = system: LOX IMVI
M14 = system: M14
MCF7 = system: MCF7
MDA-MB-231 = system: MDA-MB-231
MDA-MB-435 = system: MDA-MB-435
MDA-N = system: MDA-N
MOLT-4 = system: MOLT-4
Malme-3M = system: Malme-3M
NCI-H226 = system: NCI-H226
NCI-H23 = system: NCI-H23
NCI-H460 = system: NCI-H460
NCI-H522 = system: NCI-H522
NCI/ADR-RES = system: NCI/ADR-RES
OVCAR-3 = system: OVCAR-3
OVCAR-4 = system: OVCAR-4
OVCAR-5 = system: OVCAR-5
OVCAR-8 = system: OVCAR-8
PC-3 = system: PC-3
RPMI-8226 = system: RPMI-8226
RXF 393 = system: RXF 393
SF-268 = system: SF-268
SF-295 = system: SF-295
SF-539 = system: SF-539
SK-MEL-28 = system: SK-MEL-28
SK-MEL-2 = system: SK-MEL-2
SK-MEL-5 = system: SK-MEL-5
SK-OV-3 = system: SK-OV-3
SN12C = system: SN12C
SNB-19 = system: SNB-19
SNB-75 = system: SNB-75
SR = system: SR
SW-620 = system: SW-620
T47D = system: T47D
TK-10 = system: TK-10
U-251 = system: U-251
UACC-257 = system: UACC-257
UACC-62 = system: UACC-62
UO-31 = system: UO-31
HOP-92 = system: HOP-92

Structure (SMILES): O=C([C@H](O)[C@@H](O)c1cccc(Cl)c1)C12CC3CC(CC(C3)C1)C2
- GI50 (786-0): 1.05 µM (active)
- GI50 (A498): 2.31 µM (inactive)
- GI50 (A549): 2.19 µM (inactive)
- GI50 (ACHN): 1.91 µM (inactive)
- GI50 (BT-549): 1.87 µM (inactive)
- GI50 (CAKI-1): 2.08 µM (inactive)
- GI50 (CCRF-CEM): 1.14 µM (inactive)
- GI50 (COLO 205): 2.13 µM (inactive)
- GI50 (DU-145): 2.25 µM (inactive)
- GI50 (EKVX): 2.07 µM (inactive)
- GI50 (HCC 2998): 2.11 µM (inactive)
- GI50 (HCT-116): 1.86 µM (inactive)
- GI50 (HCT-15): 2.24 µM
- GI50 (HL-60): 0.483 µM (active)
- GI50 (HOP-62): 2.69 µM (inactive)
- GI50 (HT-29): 2.37 µM (inactive)
- GI50 (Hs-578T): 2.61 µM (inactive)
- GI50 (IGROV-1): 1.34 µM (inactive)
- GI50 (K562): 2.98 µM (inactive)
- GI50 (KM12): 2.26 µM (inactive)
- GI50 (LOX IMVI): 1.22 µM (inactive)
- GI50 (M14): 2.45 µM (inactive)
- GI50 (MCF7): 0.667 µM (active)
- GI50 (MDA-MB-231): 2.12 µM (inactive)
- GI50 (MDA-MB-435): 2.58 µM (inactive)
- GI50 (MDA-N): 1.93 µM (inactive)
- GI50 (MOLT-4): 2.84 µM (inactive)
- GI50 (Malme-3M): 4.81 µM (inactive)
- GI50 (NCI-H226): 4.32 µM (inactive)
- GI50 (NCI-H23): 1.79 µM (inactive)
- GI50 (NCI-H460): 1.85 µM (inactive)
- GI50 (NCI-H522): 2.23 µM (inactive)
- GI50 (NCI/ADR-RES): 2.27 µM (inactive)
- GI50 (OVCAR-3): 1.94 µM (inactive)
- GI50 (OVCAR-4): 2.4 µM (inactive)
- GI50 (OVCAR-5): 3.1 µM (inactive)
- GI50 (OVCAR-8): 1.88 µM (inactive)
- GI50 (PC-3): 1.87 µM (inactive)
- GI50 (RPMI-8226): 0.838 µM (active)
- GI50 (RXF 393): 2.37 µM (inactive)
- GI50 (SF-268): 1.81 µM (inactive)
- GI50 (SF-295): 3.15 µM (inactive)
- GI50 (SF-539): 1.77 µM (inactive)
- GI50 (SK-MEL-28): 3.21 µM (inactive)
- GI50 (SK-MEL-2): 1.95 µM (inactive)
- GI50 (SK-MEL-5): 4.13 µM (inactive)
- GI50 (SK-OV-3): 8.71 µM (inactive)
- GI50 (SN12C): 1.61 µM (inactive)
- GI50 (SNB-19): 1.82 µM (inactive)
- GI50 (SNB-75): 1.72 µM (inactive)
- GI50 (SR): 2.07 µM (inactive)
- GI50 (SW-620): 2.06 µM (inactive)
- GI50 (T47D): 2.16 µM (inactive)
- GI50 (TK-10): 1.98 µM (inactive)
- GI50 (U-251): 1.53 µM (inactive)
- GI50 (UACC-257): 2.21 µM (inactive)
- GI50 (UACC-62): 1.73 µM (inactive)
- GI50 (UO-31): 1.9 µM (inactive)

Structure (SMILES): Cc1cn(CCCCOC(=O)NC(CCCNC(=N)N)C(=O)O)c(=O)[nH]c1=O (centres undefined)
- GI50 (786-0): > 100 µM (inactive)
- GI50 (A498): > 100 µM (inactive)
- GI50 (A549): > 100 µM (inactive)
- GI50 (ACHN): > 100 µM (inactive)
- GI50 (BT-549): > 100 µM (inactive)
- GI50 (CAKI-1): > 100 µM (inactive)
- GI50 (CCRF-CEM): > 100 µM (inactive)
- GI50 (COLO 205): > 100 µM (inactive)
- GI50 (DU-145): > 100 µM (inactive)
- GI50 (EKVX): > 100 µM (inactive)
- GI50 (HCC 2998): > 100 µM (inactive)
- GI50 (HCT-116): > 100 µM (inactive)
- GI50 (HCT-15): > 100 µM
- GI50 (HL-60): > 100 µM (inactive)
- GI50 (HOP-62): > 100 µM (inactive)
- GI50 (HOP-92): > 100 µM (inactive)
- GI50 (HT-29): > 100 µM (inactive)
- GI50 (Hs-578T): > 100 µM (inactive)
- GI50 (IGROV-1): > 100 µM (inactive)
- GI50 (K562): > 100 µM (inactive)
- GI50 (KM12): > 100 µM (inactive)
- GI50 (LOX IMVI): > 100 µM (inactive)
- GI50 (M14): > 100 µM (inactive)
- GI50 (MCF7): > 100 µM (inactive)
- GI50 (MDA-MB-231): > 100 µM (inactive)
- GI50 (MDA-MB-435): > 100 µM (inactive)
- GI50 (MDA-N): > 100 µM (inactive)
- GI50 (MOLT-4): > 100 µM (inactive)
- GI50 (NCI-H226): > 100 µM (inactive)
- GI50 (NCI-H23): > 100 µM (inactive)
- GI50 (NCI-H460): > 100 µM (inactive)
- GI50 (NCI/ADR-RES): > 100 µM (inactive)
- GI50 (OVCAR-3): > 100 µM (inactive)
- GI50 (OVCAR-4): > 100 µM (inactive)
- GI50 (OVCAR-5): > 100 µM (inactive)
- GI50 (OVCAR-8): > 100 µM (inactive)
- GI50 (PC-3): > 100 µM (inactive)
- GI50 (RPMI-8226): > 100 µM (inactive)
- GI50 (RXF 393): > 100 µM (inactive)
- GI50 (SF-268): > 100 µM (inactive)
- GI50 (SF-295): > 100 µM (inactive)
- GI50 (SF-539): > 100 µM (inactive)
- GI50 (SK-MEL-28): > 100 µM (inactive)
- GI50 (SK-MEL-2): > 100 µM (inactive)
- GI50 (SK-OV-3): > 100 µM (inactive)
- GI50 (SN12C): > 100 µM (inactive)
- GI50 (SNB-19): > 100 µM (inactive)
- GI50 (SNB-75): > 100 µM (inactive)
- GI50 (SR): > 100 µM (inactive)
- GI50 (SW-620): > 100 µM (inactive)
- GI50 (T47D): > 100 µM (inactive)
- GI50 (TK-10): > 100 µM (inactive)
- GI50 (U-251): > 100 µM (inactive)
- GI50 (UACC-257): > 100 µM (inactive)
- GI50 (UACC-62): > 100 µM (inactive)
- GI50 (UO-31): > 100 µM (inactive)
